Results from patent US7098372B1, “Pharmaceutical compositions and methods of using secreted frizzled related protein” (Wyeth, priority 1999, dated 2006).

Experiments:
hOB SFRP mRNA = assay: TaqMan quantitative RT-PCR of hOB SFRP mRNA; assay type: cell-based, human; settings: 24 hr
Experimental: In a similar manner, the hOB-01-C1 cells were seeded into 100 mm dishes and treated for 24 hr with increasing concentrations of TGF-β1. Total RNA was then isolated from the cells, and hOB SFRP mRNA was measured by TaqMan quantitative RT-PCR. TGF-β1 suppressed SFRP gene expression by approximately 70% in a dose-dependent manner with an IC50 of about 4 pM.
In addition to the hOB cell lines from which SFRP was initially identified, additional in vitro human osteoblast models were examined for the presence of the gene. SaOS-2 human osteosarcoma osteoblast-like cells were obtained from the American Type-Culture Collection (ATCC) and were cultured at 37° C. in McCoy's 5A Modified medium containing 10% FBS, 1% (v/v) Penicillin-Streptomycin and 2 mM GlutaMAX-1. Likewise, explant cultures of normal human osteoblasts (hOBs) were established from cancellous bone chips as previously described (Bodine et al. 1996 J. Bone Miner. Res. 11: 806–819, which is incorporated herein by reference). The cells were then seeded into 150 mm dishes and treated as described in Examples 1 and 4, except that the cells were incubated at 37° C. instead of 39° C. PolyA+ RNA Northern blot analysis was performed using the cloned 1.1 kb hOB SRFP gene fragment as a ^32P-label). SaOS-2 cells expressed relatively low basal levels of SFRP mRNA which was not regulated by treatment with either PTH, PGE2 or TGF-β1 (FIG. 7). It was difficult to quantify expression of this gene in these cells, since the level of expression was low. In contrast, normal hOB cells expressed higher basal levels of SFRP message, and treatment of the cells with 100 nM PGE2 for 24 hr appeared to slightly up-regulate the steady-state levels of this mRNA (˜1.3-fold). […] Due to the low basal level expression in osteosarcoma cells, these cells may not be satisfactory in vitro models to study the regulation of the SFRP gene. Since the gene is expressed and regulated by PGE2 in cultures of normal human osteoblasts, the use of the hOB cell lines described in the present invention is validated for in vitro osteoblast models.

hOB SFRP gene fragment = assay: RADE (differential-display PCR) of hOB cell lines treated with osteogenic agents; assay type: cell-based, human; settings: 24 hr
From the text: It can also be seen that the hOB-01-C1 cells express high basal levels of this gene.
The hOB SFRP gene fragment was identified using RADE (rapid analysis of differential expression) technology as described by Shiue 1997 Drug Develop. Res. 41: 142–159, the whole of which is incorporated herein. Three hOB cell lines (hOB-03-C5, hOB-03-CE6 and hOB-01-C1), representing three distinct stages of differentiation (proliferative, mature and preosteocytic, respectively) were used to isolate and identify SFRP. The hOB cell lines were established and cultured as previously described (Bodine et al. 1996 J. Bone Miner. Res. 11: 806–819; Bodine et al. 1996 Endocrinology 137: 4592–4604; Bodine et al. 1997 J. Cell. Biochem. 65: 368–387). […] However, in contrast to osteosarcoma cells (Stein and Lian 1993 Endocrine Rev. 14: 424–442), the hOB cell lines were faithful to the proliferation/differentiation relationship at the nonpermissive temperature (>37° C.) when the T-antigen mutant is inactivated. The cell lines were seeded into 150 mm dishes at ˜40,000 cells/cm^2 with growth medium [D-MEM/F-12 containing 10% (v/v) heat-inactivated fetal bovine serum (FBS), 1% (v/v) Penicillin-Streptomycin and 2 mM GlutaMAX-1] and incubated overnight at 34° C. […]

IC50 (hOB SFRP mRNA; hOB-01-C1 cells, read-out: IC50 for suppression of SFRP gene expression) [pM] | Compound | up-regulation of SFRP message (hOB SFRP mRNA; normal hOB cells (explant cultures), 100 nM) [fold] | regulation of hOB SFRP gene fragment (hOB SFRP gene fragment; hOB-03-C5 and hOB-03-CE6 cell lines, 100 nM) | suppression of SFRP gene expression (hOB SFRP mRNA; hOB-01-C1 cells, increasing concentrations) | regulation of hOB SFRP gene fragment (hOB SFRP gene fragment; pre-osteocytic hOB-01-C1 cell line, 0.1 nM)
– | CCCCC[C@H](O)/C=C/[C@H]1[C@H](O)CC(=O)[C@@H]1C/C=C\CCCC(=O)O [PGE2, prostaglandin E2] | 10 | strongly up-regulated | – | –
~4 | human transforming growth factor-β1 [TGF-β1] | – | – | approximately 70% | down-regulated
